From patent US20070142397A2, “PHENYPIPERAZINE DERIVATIVES WITH A COMBINATION OF PARTIAL DOPAMINE-D2 RECEPTOR AGONISM AND SEROTONIN REUPTAKE INHIBITION” (SOLVAY PHARMECEUTICALS B.V., priority 2004, published 2007)
Structures can show the parent of a compound that is named as a salt.

biological target: T1, Human dopamine D2,L receptors (Homo sapiens, UniProt P14416); experiment: Inhibition of forskolin-induced [3H]-cAMP accumulation in CHO-K1 cells; assay type: cell-based; conditions: Cloned human dopamine D2,L receptors, full agonist ε=1, full antagonist ε=0
T1 construct: host or cells: CHO-K1
Method: Inhibition of Forskolin-Induced [^3H]-cAMP Accumulation
The in vitro functional activity at dopamine-D2 receptors, including the intrinsic activity (ε) of the compounds of the invention was measured by their ability to inhibit forskolin-induced [^3H]-cAMP accumulation.
Human dopamine D2,L receptors were Cloned in fibroblast cell line CHO-K1 cells and obtained from Dr. Grandy, Vollum Institute, Portland, Oreg., USA. CHO cells were grown in a Dulbecco's modified Eagle's medium (DMEM) culture medium, supplemented with 10% heat-inactivated fetal calf serum, 2 mM glutamine, 1 mM pyruvate, 5000 units/ml penicillin, 5000 μg/ml streptomycin and 200 μg/ml G-418 at 37° C. in 93% air/7% CO2. For incubation with test compounds, confluent cultures grown in 24 wells plates were used. Each condition or substance was routinely tested in quadruplicate. Cells were loaded with 1 μci [^3H]-adenine in 0.5 ml medium/well. After 2 hours, cultures were washed with 0.5 ml PBS containing 1 mM of the phospho-diesterase inhibitor isobutylmethylxanthine (IBMX) and incubated for 20 min with 0.5 ml PBS containing 1 mM IBMX and forskolin with or without test compound. After aspiration the reaction was stopped with 1 ml trichloroacetic acid 5% (w/v). […] 0.8 ml Extract was passed over Dowex (50WX-4 200-400 mesh) and aluminumoxide columns, eluted with water and 0.1M imidazole (pH=7.5). Eluates were mixed with 7 ml Insta-gel and radioactivity was counted with a liquid scintillation counter. The conversion of [^3H]-ATP into [^3H]-cAMP was expressed as the ratio in percentage radioactivity in the cAMP fraction as compared to combined radioactivity in both cAMP and ATP fractions, and basal activity was subtracted to correct for spontaneous activity.
Test compounds were obtained as 10 mM stock solutions in 100% DMSO, and diluted in PBS/IBMX to final concentrations. Typically, compounds were used in concentrations that ranged from 10^−10M to 10^−5M. From quadruplicate data counts, the mean was taken as an estimate for drug-induced, receptor-mediated effects at specified second messenger accumulation, expressed as percentage of control values (forskolin-stimulated cAMP accumulation, subtracted by basal activity). By using the non-linear curve-fitting program INPLOT or the Excel-add-in XL-Fit, mean values were plotted against drug concentration (in molar) and a sigmoid curve (four-parameter logistic curve) was constructed. The maximal forskolin-induced stimulated conversion is taken as maximum value and the maximal inhibition (usually at drug concentrations 10^−6 M or 10^−5 M) as minimum and these values were fixed during the fitting process. Thus, concentrations of the compound, causing 50% of the maximally obtained inhibition of forskolin-induced cAMP accumulation (EC50), are averaged over several experiments and presented as mean pEC50±SEM. Antagonist potency is assessed by co-incubating cells with a fixed agonist concentration and specified antagonist concentrations. Curve fitting procedures are identical to those used for estimating EC50 values. Thus IC50 values, i.e. the concentration that is able to achieve 50% of maximal antagonism that can be achieved by this compound. IC50 values are corrected using a Cheng-Prussoff equation, correcting it for agonist concentration and EC50 values that is obtained in the same experiment. Thus, Kb=IC50/(1+[agonist]/EC50, agonist).The corresponding pA2 value is −log (Kb). Concentration-response curve fitting allows estimation of pEC50 values and of maximal achievable effect (intrinsic activity or efficacy (ε). A full receptor agonist has ε=1, a full receptor antagonist has ε=0, and a partial receptor agonist has an intermediate intrinsic activity.

T1 sequence (P14416 whole entry): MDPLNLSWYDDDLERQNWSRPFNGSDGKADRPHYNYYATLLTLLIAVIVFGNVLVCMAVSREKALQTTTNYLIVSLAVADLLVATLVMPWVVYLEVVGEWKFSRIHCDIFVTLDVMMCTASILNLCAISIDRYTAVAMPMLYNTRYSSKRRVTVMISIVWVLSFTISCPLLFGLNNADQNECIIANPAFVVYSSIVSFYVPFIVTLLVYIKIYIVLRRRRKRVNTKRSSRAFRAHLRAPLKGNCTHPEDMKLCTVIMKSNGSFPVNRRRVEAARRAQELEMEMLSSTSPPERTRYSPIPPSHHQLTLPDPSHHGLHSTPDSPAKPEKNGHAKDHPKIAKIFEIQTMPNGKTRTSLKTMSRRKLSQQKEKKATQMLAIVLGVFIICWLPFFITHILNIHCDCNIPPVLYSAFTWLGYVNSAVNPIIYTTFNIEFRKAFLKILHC

| Structure (SMILES) | Dopamine-D2 cAMP accum ∈ (intrinsic activity) |
| --- | --- |
| CC(CCN1CCN(c2cccc3c2oc(=O)n3C)CC1)c1c[nH]c2ccc(F)cc12 (centres unmarked) [compound 3] | 0.43 |
| Cn1cc(CCCN2CCN(c3cccc4c3oc(=O)n4C)CC2)c2cc(Cl)ccc21 [compound 7] | 0.15 |
| Cn1c(=O)oc2c(N3CCN(CCCc4c[nH]c5ccc(F)cc45)CC3)cccc21 [compound 9] | 0.12 |
| Cn1c(=O)oc2c(N3CCN(CCCCc4c[nH]c5ccc(F)cc45)CC3)cccc21 [compound 11] | 0.72 |
| Fc1ccc2[nH]cc(CCCN3CCN(c4cccc5[nH]c(=S)oc45)CC3)c2c1 [compound 17] | 0.32 |
| Cn1cc(CCCN2CCN(c3cccc4c3oc(=O)n4C)CC2)c2cc(F)ccc21 [compound 8] | 0.44 |
| C[C@@H]1CN(c2cccc3[nH]c(=O)oc23)C[C@H](C)N1CCCc1c[nH]c2ccc(F)cc12 [compound 1] | 0.13 |
| Cn1c(=O)oc2c(N3CCN(CCCCc4c[nH]c5ccc(C#N)cc45)CC3)cccc21 [compound 12] | 0.75 |
| CCn1c(=O)oc2c(N3CCN(CCCc4c[nH]c5ccc(F)cc45)CC3)cccc21 [compound 16] | 0.15 |
| Cn1c(=O)oc2c(N3CCN(CCCc4c[nH]c5ccc(C#N)cc45)CC3)cccc21 [compound 10] | 0.66 |
| CC(Cc1c[nH]c2ccc(F)cc12)CN1CCN(c2cccc3c2oc(=O)n3C)CC1 (centres unmarked) [compound 4] | 0.22 |
| Cn1c(=O)oc2c(N3CCN(CCc4c[nH]c5ccc(F)cc45)CC3)cccc21 [compound 13] | 0.22 |
| Cc1cc(Cl)cc2c(CCCN3CCN(c4cccc5c4oc(=O)n5C)CC3)c[nH]c12 [compound 6] | 0.52 |

biological target: T2, dopamine-D2 receptors (Rattus norvegicus, UniProt P61169); experiment: In vitro affinity for dopamine-D2 receptors ([3H]-spiroperidol receptor binding assay, Creese et al.); conditions: not given
T2 construct: labels dopamine receptors in rat pituitary and brain; from tissue; host or cells: rat brain / pituitary membranes (from the title of the cited method)
Method: In Vitro Affinity for Dopamine-D2 Receptors
Affinity of the compounds for dopamine-D2 receptors was determined using the receptor binding assay described by I. Creese, R. Schneider and S. H. Snyder: “[^3H]-Spiroperidol labels dopamine receptors in rat pituitary and brain”, Eur. J. Pharmacol., 46, 377-381, 1977.
(§1) The affinity of the compounds of the invention for dopamine-D2 receptors and serotonine reuptake sites was determined as described above. From the binding affinity measured for a given compound of formula (1), one can estimate a theoretical lowest effective dose. At a concentration of the compound equal to twice the measured Ki-value, 100% of the receptors likely will be occupied by the compound. Converting that concentration to mg of compound per kg of patient yields a theoretical lowest effective dose, assuming ideal bioavailability. Pharmacokinetic, pharmacodynamic, and other considerations may alter the dose actually administered to a higher or lower value. The dosage expediently administered is 0.001-1000 mg/kg, preferably 0.1-100 mg/kg of patient's bodyweight.

T2 sequence (P61169 whole entry): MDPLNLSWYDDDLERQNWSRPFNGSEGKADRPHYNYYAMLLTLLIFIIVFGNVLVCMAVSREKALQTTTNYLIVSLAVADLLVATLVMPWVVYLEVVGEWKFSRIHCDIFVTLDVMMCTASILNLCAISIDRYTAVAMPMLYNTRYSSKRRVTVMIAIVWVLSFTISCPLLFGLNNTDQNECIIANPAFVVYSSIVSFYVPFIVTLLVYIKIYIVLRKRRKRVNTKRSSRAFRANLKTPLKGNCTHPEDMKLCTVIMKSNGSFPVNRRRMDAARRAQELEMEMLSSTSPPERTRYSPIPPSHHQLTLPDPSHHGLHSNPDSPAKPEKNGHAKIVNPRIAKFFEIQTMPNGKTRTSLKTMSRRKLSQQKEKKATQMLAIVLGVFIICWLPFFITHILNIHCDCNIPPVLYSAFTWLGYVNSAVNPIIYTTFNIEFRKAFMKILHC

| Structure (SMILES) | Ki [nM] |
| --- | --- |
| Cn1c(=O)oc2c(N3CCN(CCc4c[nH]c5ccc(F)cc45)CC3)cccc21 [compound 13] | 3.98 |

same assay, conditions: receptor binding; read-out: Dopamine-D2 binding pKi (converted)

| Structure (SMILES) | Ki [nM] |
| --- | --- |
| CC(CCN1CCN(c2cccc3c2oc(=O)n3C)CC1)c1c[nH]c2ccc(F)cc12 (centres unmarked) [compound 3] | 100 |
| Cn1cc(CCCN2CCN(c3cccc4c3oc(=O)n4C)CC2)c2cc(Cl)ccc21 [compound 7] | 200 |
| Cn1c(=O)oc2c(N3CCN(CCCc4c[nH]c5ccc(F)cc45)CC3)cccc21 [compound 9] | 79.4 |
| Cn1c(=O)oc2c(N3CCN(CCCCc4c[nH]c5ccc(F)cc45)CC3)cccc21 [compound 11] | 25.1 |
| CC(CCc1c[nH]c2ccc(F)cc12)N1CCN(c2cccc3c2oc(=O)n3C)CC1 (centres unmarked) [compound 2] | 158 |
| Fc1ccc2[nH]cc(CCCN3CCN(c4cccc5[nH]c(=S)oc45)CC3)c2c1 [compound 17] | 15.8 |
| Cn1cc(CCCN2CCN(c3cccc4c3oc(=O)n4C)CC2)c2cc(F)ccc21 [compound 8] | 31.6 |
| C[C@@H]1CN(c2cccc3[nH]c(=O)oc23)C[C@H](C)N1CCCc1c[nH]c2ccc(F)cc12 [compound 1] | 20 |
| Cn1c(=O)oc2c(N3CCN(CCCCc4c[nH]c5ccc(C#N)cc45)CC3)cccc21 [compound 12] | 7.94 |
| CCn1c(=O)oc2c(N3CCN(CCCc4c[nH]c5ccc(F)cc45)CC3)cccc21 [compound 16] | 39.8 |
| Cn1c(=O)oc2c(N3CCN(CCCc4c[nH]c5ccc(C#N)cc45)CC3)cccc21 [compound 10] | 126 |
| CC(Cc1c[nH]c2ccc(F)cc12)CN1CCN(c2cccc3c2oc(=O)n3C)CC1 (centres unmarked) [compound 4] | 7.94 |
| Cn1c(=O)oc2c(N3CCN(CCCc4c[nH]c5ccc(F)cc45)CC3)cc(F)cc21 [compound 15] | 79.4 |

tested on: not given; experiment: not given; conditions: not given

| Structure (SMILES) | melting point |
| --- | --- |
| Cn1cc(CCCN2CCN(c3cccc4c3oc(=O)n4C)CC2)c2cc(F)ccc21 (as salt: HCl) [compound 8] | > 225 °C (dec.) |
| Cn1cc(CCCN2CCN(c3cccc4c3oc(=O)n4C)CC2)c2cc(Cl)ccc21 [compound 7] | 140 to 142 °C |
| Cn1c(=O)oc2c(N3CCN(CCCc4c[nH]c5ccc(F)cc45)CC3)cccc21 [compound 9] | 135 to 137 °C |
| CC(CCN1CCN(c2cccc3c2oc(=O)n3C)CC1)c1c[nH]c2ccc(F)cc12 (centres unmarked) (as salt: HCl) [compound 3] | 100 to 140 °C (dec.) |
| Fc1ccc2[nH]cc(CCCN3CCN(c4cccc5[nH]c(=S)oc45)CC3)c2c1 [compound 17] | 238 to 240 °C (dec.) |
| Cn1c(=O)oc2c(N3CCN(CCCCc4c[nH]c5ccc(C#N)cc45)CC3)cccc21 (as salt: HCl) [compound 12] | 213 to 215 °C |
| C[C@@H]1CN(c2cccc3[nH]c(=O)oc23)C[C@H](C)N1CCCc1c[nH]c2ccc(F)cc12 (as salt: HCl) [compound 1] | 270 to 275 °C |
| CC(CCc1c[nH]c2ccc(F)cc12)N1CCN(c2cccc3c2oc(=O)n3C)CC1 (centres unmarked) (as salt: HCl) [compound 2] | 207 to 209 °C |
| Cn1c(=O)oc2c(N3CCN(CCCc4c[nH]c5ccc(C#N)cc45)CC3)cccc21 [compound 10] | 151 to 152 °C |
| CC(Cc1c[nH]c2ccc(F)cc12)CN1CCN(c2cccc3c2oc(=O)n3C)CC1 (centres unmarked) [compound 4] | 166 to 168 °C |
| CCn1c(=O)oc2c(N3CCN(CCCc4c[nH]c5ccc(F)cc45)CC3)cccc21 (as salt: HCl) [compound 16] | 100 to 140 °C |
| Cn1c(=O)oc2c(N3CCN(CCCCc4c[nH]c5ccc(F)cc45)CC3)cccc21 (as salt: HCl) [compound 11] | 254 to 256 °C |
| Cn1c(=O)oc2c(N3CCN(CCCc4c[nH]c5ccc(F)cc45)CC3)cc(F)cc21 (as salt: HCl) [compound 15] | 246 to 249 °C |
| Cn1c(=O)oc2c(N3CCN(CCc4c[nH]c5ccc(F)cc45)CC3)cccc21 [compound 13] | 198 to 200 °C |
| Cc1cc(Cl)cc2c(CCCN3CCN(c4cccc5c4oc(=O)n5C)CC3)c[nH]c12 [compound 6] | 159 to 162 °C |

biological target: T3, serotonin reuptake sites (Rattus norvegicus, UniProt P31652); experiment: In vitro affinity for serotonin reuptake sites ([3H]-paroxetine binding assay, Habert et al.); conditions: not given
T3 construct: from tissue; host or cells: rat cortical membranes (from the title of the cited method)
Method: In Vitro Affinity for Serotonin Reuptake Sites
Affinity of the compounds for serotonin reuptake sites was determined using the receptor binding assay described by E. Habert et al.,: “Characterisation of [^3H]-paroxetine binding to rat cortical membranes”, Eur. J. Pharmacol., 118, 107-114, 1985.
as §1

T3 sequence (P31652 whole entry): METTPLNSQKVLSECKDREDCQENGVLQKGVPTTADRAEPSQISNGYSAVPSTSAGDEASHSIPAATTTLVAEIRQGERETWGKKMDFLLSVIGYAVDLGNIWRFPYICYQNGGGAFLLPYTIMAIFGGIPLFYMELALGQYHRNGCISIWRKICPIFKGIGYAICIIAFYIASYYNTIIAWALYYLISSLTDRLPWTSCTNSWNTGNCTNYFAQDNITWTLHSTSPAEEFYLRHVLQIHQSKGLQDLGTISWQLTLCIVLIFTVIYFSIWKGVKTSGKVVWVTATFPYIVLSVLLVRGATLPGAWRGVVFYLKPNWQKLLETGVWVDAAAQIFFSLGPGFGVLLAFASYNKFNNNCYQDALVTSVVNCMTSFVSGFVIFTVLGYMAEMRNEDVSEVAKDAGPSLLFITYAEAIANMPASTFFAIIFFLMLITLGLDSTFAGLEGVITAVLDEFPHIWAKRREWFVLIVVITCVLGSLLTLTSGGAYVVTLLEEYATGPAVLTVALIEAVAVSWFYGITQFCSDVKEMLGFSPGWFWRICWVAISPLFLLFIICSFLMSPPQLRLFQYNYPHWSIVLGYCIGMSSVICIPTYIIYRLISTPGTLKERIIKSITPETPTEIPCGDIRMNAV

| Structure (SMILES) | Ki [nM] |
| --- | --- |
| Cn1c(=O)oc2c(N3CCN(CCc4c[nH]c5ccc(F)cc45)CC3)cccc21 [compound 13] | 3.16 |

same assay, conditions: receptor binding; read-out: 5-HT reuptake binding pKi (converted)

| Structure (SMILES) | Ki [nM] |
| --- | --- |
| CC(CCN1CCN(c2cccc3c2oc(=O)n3C)CC1)c1c[nH]c2ccc(F)cc12 (centres unmarked) [compound 3] | 0.794 |
| Cn1cc(CCCN2CCN(c3cccc4c3oc(=O)n4C)CC2)c2cc(Cl)ccc21 [compound 7] | 2.51 |
| Cn1c(=O)oc2c(N3CCN(CCCc4c[nH]c5ccc(F)cc45)CC3)cccc21 [compound 9] | 7.94 |
| Cn1c(=O)oc2c(N3CCN(CCCCc4c[nH]c5ccc(F)cc45)CC3)cccc21 [compound 11] | > 10 |
| CC(CCc1c[nH]c2ccc(F)cc12)N1CCN(c2cccc3c2oc(=O)n3C)CC1 (centres unmarked) [compound 2] | 1 |
| Fc1ccc2[nH]cc(CCCN3CCN(c4cccc5[nH]c(=S)oc45)CC3)c2c1 [compound 17] | 5.01 |
| Cn1cc(CCCN2CCN(c3cccc4c3oc(=O)n4C)CC2)c2cc(F)ccc21 [compound 8] | > 10 |
| C[C@@H]1CN(c2cccc3[nH]c(=O)oc23)C[C@H](C)N1CCCc1c[nH]c2ccc(F)cc12 [compound 1] | 5.01 |
| Cn1c(=O)oc2c(N3CCN(CCCCc4c[nH]c5ccc(C#N)cc45)CC3)cccc21 [compound 12] | < 1 |
| CCn1c(=O)oc2c(N3CCN(CCCc4c[nH]c5ccc(F)cc45)CC3)cccc21 [compound 16] | < 1 |
| Cn1c(=O)oc2c(N3CCN(CCCc4c[nH]c5ccc(C#N)cc45)CC3)cccc21 [compound 10] | 3.98 |
| CC(Cc1c[nH]c2ccc(F)cc12)CN1CCN(c2cccc3c2oc(=O)n3C)CC1 (centres unmarked) [compound 4] | 2.51 |
| Cn1c(=O)oc2c(N3CCN(CCCc4c[nH]c5ccc(F)cc45)CC3)cc(F)cc21 [compound 15] | 0.316 |
